In ChEMBL document CHEMBL3045578, “Synthesis and study of the antidepressant activity of novel 4,5-dihydro-7-alkoxy(phenoxy)-tetrazolo[1,5-a]quinoline derivatives” (2012):
Calls of active or inactive are those of the source. No cut-off for these calls is given here.

Experiments:
Mus musculus [1] = experiment: Antidepressant activity in Mus musculus Kunming (mouse) assessed as immobility time at 40 mg/kg, po administered 30 min prior to testing measured for 6 min by forced swimming test (reference value: 177.67 +/- 10.88 secs); assay type: functional
Mus musculus [2] = experiment: Antidepressant activity in Mus musculus Kunming (mouse) assessed as decrease in immobility time at 40 mg/kg, po administered 30 min prior to testing measured for 6 min by tail suspension test (reference value: 110.67 +/- 11.52 secs); assay type: functional

c1ccc(COc2ccc3c(c2)CCc2nnnn2-3)cc1
Time (Mus musculus [1]): 95.17 s
Time (Mus musculus [2]): 20 s

Brc1ccccc1COc1ccc2c(c1)CCc1nnnn1-2
Time (Mus musculus [1]): 65.17 s
Time (Mus musculus [2]): 20 s

Clc1ccccc1COc1ccc2c(c1)CCc1nnnn1-2
Time (Mus musculus [1]): 65.17 s
Time (Mus musculus [2]): 20 s

CCCCCCCCOc1ccc2c(c1)CCc1nnnn1-2
Time (Mus musculus [1]): 172.83 s
Time (Mus musculus [2]): 107.5 s

CCCOc1ccc2c(c1)CCc1nnnn1-2
Time (Mus musculus [1]): 181.5 s
Time (Mus musculus [2]): 93 s

Fc1ccc(COc2ccc3c(c2)CCc2nnnn2-3)cc1
Time (Mus musculus [1]): 65.17 s

Clc1ccc(COc2ccc3c(c2)CCc2nnnn2-3)cc1
Time (Mus musculus [2]): 20 s

CCCCCCCOc1ccc2c(c1)CCc1nnnn1-2
Time (Mus musculus [1]): 170.5 s
Time (Mus musculus [2]): 20 s

Nc1ccc(COc2ccc3c(c2)CCc2nnnn2-3)cc1
Time (Mus musculus [1]): 178 s
Time (Mus musculus [2]): 98.5 s

COc1ccc(COc2ccc3c(c2)CCc2nnnn2-3)cc1
Time (Mus musculus [1]): 65.17 s
Time (Mus musculus [2]): 20 s

Fc1ccccc1COc1ccc2c(c1)CCc1nnnn1-2
Time (Mus musculus [2]): 20 s

CCCCOc1ccc2c(c1)CCc1nnnn1-2
Time (Mus musculus [2]): 20 s

CNCCC(Oc1ccc(C(F)(F)F)cc1)c1ccccc1 (configuration not stated) [FLUOXETINE]
Time (Mus musculus [1]): 93.17 s
Activity (Mus musculus [2]): Active

Cc1ccc(COc2ccc3c(c2)CCc2nnnn2-3)cc1
Time (Mus musculus [1]): 65.17 s

Brc1cccc(COc2ccc3c(c2)CCc2nnnn2-3)c1
Time (Mus musculus [2]): 20 s

CCCCCCOc1ccc2c(c1)CCc1nnnn1-2
Time (Mus musculus [1]): 133.5 s

Fc1cccc(COc2ccc3c(c2)CCc2nnnn2-3)c1
Time (Mus musculus [1]): 65.17 s
Time (Mus musculus [2]): 20 s

Clc1cccc(COc2ccc3c(c2)CCc2nnnn2-3)c1
Time (Mus musculus [1]): 65.17 s

CCCCCOc1ccc2c(c1)CCc1nnnn1-2
Time (Mus musculus [1]): 135.67 s
Time (Mus musculus [2]): 20 s

CCOc1ccc2c(c1)CCc1nnnn1-2
Time (Mus musculus [1]): 179.83 s
Time (Mus musculus [2]): 108.17 s
